{
  "source": "patent US6818656B2",
  "about": "“Method and composition for treatment of irritable bowel disease” (University of Florida, priority 2001, dated 2004)",
  "key": {"[1]": {"system": "castor oil-induced diarrhea", "conditions": "cited from earlier work"}, "[2]": {"system": "stress-induced fecal output", "assay": "Psychological stress-induced (water avoidance) IBS model, SC administration", "assay_type": "in vivo", "conditions": "57.8 μmol/kg SC; experiment stopped after 2 h, results after 2 h"}, "[3]": {"system": "stress-induced fecal output", "assay": "Psychological stress-induced (water avoidance) IBS model, SC administration", "assay_type": "in vivo", "conditions": "for mortality of rats after drug administration: ~24 h post-dosing", "from_the_text": "(§1) For drug preparation and administration, the compounds were put into solution with sterile normal saline and sonicated briefly, if necessary. The drugs were made up at concentrations such that the rats received the drugs PO or SC at the rate of 1 cc per kilogram. Mice received the CHX(3,4,3)-trans IP at 1 cc per 100 grams. The solutions were made fresh the day of the study. Control animals received an equivalent amount of saline PO or SC.\nAnimal care and experimental procedures were approved by the Institutional Animal Care and Use Committee. Male Sprague-Dawley rats (250-350 g, Harlan Sprague-Dawley, Indianapolis, Ind.) were housed in polycarbonate cages in a temperature- and humidity-controlled room with a 12-hour light/dark cycle. The experiments were performed at the same time of the day to decrease diurnal variability. A typical experiment involved 20 rats: 5 saline-treated controls and 5 pretreated with polyamine analogues at each of three doses as either a SC injection or a PO gavage. The rats in the SC studies and in one set of experiments involving PO administration were allowed ad libitum access to a standard rodent diet and tap water until the morning of the experiment. Stress was initiated 30 minutes post drug as described below. In another set of experiments involving PO administration, the animals were fasted overnight but were allowed free access to water. […] In a final experiment, non-stressed control rats were injected with saline SC and housed in individual polycarbonate cages. The fecal output (number of pellets) of the stressed and unstressed animals was recorded at 30-min intervals for a 6-h period, during which they received no food or water.\n(§2) To initiate the stress, water was added to each cage to a depth of at least 4.5 cm, i.e., within 0.5 cm of the top of the Pyrex dish. To avoid contact with water, the rats stand on the glass dish for the 6 h of the study. Stool output was expressed as the total number of fecal pellets excreted over the 6-h collection period. Percent reduction was calculated by dividing the mean value from the treated animals (T) by the mean value from the control animals (C), subtracting the resulting quotient from 1.0, and multiplying by 100 [i.e., (1.0−T/C)×100].\n(§3) A one-tailed t-test assuming unequal variance was performed on the stool output data of the treated vs control (0 mg/kg) animals for each compound. A value of P<0.05 was considered significant.\nThe psychological stress-induced IBS model involves subjecting the rats to an aversive stimulus (water) and observing the increase in fecal output over a period of time. […] Control rats received an equivalent amount of saline SC."}, "[4]": {"system": "stress-induced fecal output", "assay": "Psychological stress-induced (water avoidance) IBS model, PO administration by gavage", "assay_type": "in vivo, rat", "conditions": "6-hr collection", "from_the_text": "as §1\nAnimal care and experimental procedures were approved by the Institutional Animal Care and Use Committee. Male Sprague-Dawley rats (250-350 g, Harlan Sprague-Dawley, Indianapolis, Ind.) were housed in polycarbonate cages in a temperature- and humidity-controlled room with a 12-hour light/dark cycle. The experiments were performed at the same time of the day to decrease diurnal variability. A typical experiment involved 20 rats: 5 saline-treated controls and 5 pretreated with polyamine analogues at each of three doses as either a SC injection or a PO gavage. The rats in the SC studies and in one set of experiments involving PO administration were allowed ad libitum access to a standard rodent diet and tap water until the morning of the experiment. Stress was initiated 30 minutes post drug as described below. In another set of experiments involving PO administration, the animals were fasted overnight but were allowed free access to water. The animals were then stressed from ½ h to 2 h post-drug (data not shown). In a final experiment, non-stressed control rats were injected with saline SC and housed in individual polycarbonate cages. The fecal output (number of pellets) of the stressed and unstressed animals was recorded at 30-min intervals for a 6-h period, during which they received no food or water.\nas §2, with “Once the drug had been administered, the animals were housed individually in polycarbonate cages containing a clear 70×50 mm Pyrex crystallization dish (Fisher, Pittsburgh, Pa.) inverted in the center and held in place with vacuum grease. To initiate” for “To initiate”\nas §3\nBecause an orally active compound would be desirable for the treatment of IBS, selected analogues utilizing oral administration in the same model were assessed. In the initial studies animals were utilized that had been fasted overnight. Rodents were then given the drug of interest PO by gavage and stressed ½ h, 1 h, or 2 h post-drug. Unfortunately, because of the low baseline stool output in fasted control rats, the reductions in fecal output observed upon drug administration cannot be reported with any confidence (data not shown). Thereafter, only non-fasted animals were employed and were given the agents by gavage at doses of 11.6, 23.2, 57.8, or 115.6:mol/kg 30 minutes before initiating the stress. […] At doses of 11.6 and 23.2:mol/kg, CHX(3,4,3)-trans reduced stooling by about 80% (P=0.001 and <0.001, respectively). DEHSPM was effective at a dose of […]:mol/kg (40% diminution of fecal output; P<0.01), and DE(5,4,5) was active at doses of 23.2 and 57.8:mol/kg (55 and 73% reductions in fecal output, respectively; P<0.001 for both doses)."}, "[5]": {"system": "stress-induced fecal output", "assay": "Psychological stress-induced (water avoidance) IBS model, PO administration by gavage", "assay_type": "in vivo, rat", "conditions": "2.3 μmol/kg PO, non-fasted, stress 30 min post drug, 6-hr collection"}, "[6]": {"assay": "Acute toxicity assessment, single intraperitoneal injection", "assay_type": "in vivo", "experimental": "For the acute toxicity assessment the CHX(3,4,3)-trans was administered to female CD-1 mice (Charles River, Wilmington, Mass.) as a single intraperitoneal (IP) injection. The animals were carefully observed post-dosing and were scored 2 h after administration of the drug.\nas §1"}, "[7]": {"conditions": "2.3 μmol/kg SC, stress 30 min post drug, 6-h collection"}, "[8]": {"conditions": "57.8 μmol/kg SC, listed as DBSPM"}, "[9]": {"conditions": "Rattus norvegicus, sc, 2 h, read-out: % Reduction"}, "[10]": {"conditions": "Rattus norvegicus, 2.3 μmol/kg SC, vs stressed controls, 6 h, read-out: % Reduction"}},
  "data": [
    {"smiles": "CCCCNCCCNCCCCNCCCNCCCC", "note": "[Compound 5]", "values": [
      {"measurement": "neurotoxicity in rats at subtherapeutic doses", "setting": "[1]; doses equivalent to a 5 mg/kg dose of DEHSPM", "value": "Signs of neurotoxicity"},
      {"measurement": "Stool Output", "setting": "[2]", "value": "0 ± 0 number of fecal pellets"},
      {"measurement": "Stool Output", "setting": "[3]; [7]", "value": "14.0 ± 4.8 number of fecal pellets"},
      {"measurement": "toxic effects observed in stressed rats", "setting": "[3]; 11.6 μmol/kg SC", "value": "^eDue to severe CNS toxicity, the experiment was stopped after 2 h; the results after 2 h are reported."},
      {"measurement": "Stool Output", "setting": "[3]; 11.6 μmol/kg SC, experiment stopped after 2 h, results after 2 h", "value": "0 ± 0 number of fecal pellets"},
      {"measurement": "% Reduction", "setting": "[3]; 11.6 μmol/kg SC, experiment stopped after 2 h, results after 2 h, listed as DBSPM", "value": "completely eliminated fecal output"},
      {"measurement": "toxic effects observed in stressed rats", "setting": "[3]; 11.6 μmol/kg SC, listed as DBSPM", "value": "severe neurotoxicity"},
      {"measurement": "toxic effects observed in stressed rats", "setting": "[3]; 57.8 μmol/kg SC", "value": "^eDue to severe CNS toxicity, the experiment was stopped after 2 h; the results after 2 h are reported."},
      {"measurement": "mortality of rats after drug administration", "setting": "[3]; 57.8 μmol/kg SC", "value": "^fAll rats in this group died ˜24 h after drug administration."},
      {"measurement": "mortality of rats after drug administration", "setting": "[3]; [8]", "value": "died within ˜24 h post-dosing"},
      {"measurement": "toxic effects observed in stressed rats", "setting": "[3]; [8]", "value": "severe neurotoxicity"},
      {"measurement": "inhibition in vivo at 11.6 µmol/kg", "setting": "[3]; [9]", "value": 100, "unit": "%"},
      {"measurement": "inhibition in vivo at 57.8 µmol/kg", "setting": "[3]; [9]", "value": 100, "unit": "%"},
      {"measurement": "inhibition in vivo at 2.3 µmol/kg", "setting": "[3]; [10]", "value": 39, "unit": "%"}
    ]},
    {"smiles": "CCNCCCN[C@H]1CC[C@H](NCCCNCC)CC1", "note": "[Compound 12, N,N′-bis[3-(ethylamino)propyl]-trans-1,4-cyclohexanediamine]", "values": [
      {"measurement": "doses at which signs of motor dysfunction, including seizures, were observed", "setting": "[1]; rats, rodent antidiarrheal model", "value": "≥ 1", "unit": "mg/kg"},
      {"measurement": "activity in castor oil-induced diarrhea model (in words)", "setting": "[1]; rodent", "value": "most effective of the SPM analogues tested"},
      {"measurement": "Stool Output", "setting": "[4]; 11.6 μmol/kg PO", "value": "2.2 ± 1.3 number of fecal pellets"},
      {"measurement": "Stool Output", "setting": "[4]; 23.2 μmol/kg PO", "value": "2.0 ± 1.9 number of fecal pellets"},
      {"measurement": "Stool Output", "setting": "[5]", "value": "9.0 ± 1.6 number of fecal pellets"},
      {"measurement": "Stool Output", "setting": "[3]; 0.0726 μmol/kg SC, 6-h collection", "value": "5.4 ± 2.1 number of fecal pellets"},
      {"measurement": "Stool Output", "setting": "[3]; 0.145 μmol/kg SC, 6-h collection", "value": "2.2 ± 1.3 number of fecal pellets"},
      {"measurement": "Stool Output", "setting": "[3]; 0.29 μmol/kg SC, 6-h collection", "value": "0.6 ± 0.9 number of fecal pellets"},
      {"measurement": "toxic effects observed in stressed rats", "setting": "[3]; 0.58 μmol/kg SC", "value": "^gToxic effects were evident, including huddling in the corner of the cage."},
      {"measurement": "Stool Output", "setting": "[3]; 0.58 μmol/kg SC, 6-h collection", "value": "0 ± 0 number of fecal pellets"},
      {"measurement": "toxic effects observed in stressed rats", "setting": "[3]; 1.16 μmol/kg SC", "value": "^gToxic effects were evident, including huddling in the corner of the cage."},
      {"measurement": "Stool Output", "setting": "[3]; 1.16 μmol/kg SC, 6-h collection", "value": "0 ± 0 number of fecal pellets"},
      {"measurement": "toxic effects observed in stressed rats", "setting": "[3]; 2.3 μmol/kg SC", "value": "^gToxic effects were evident, including huddling in the corner of the cage."},
      {"measurement": "Stool Output", "setting": "[3]; [7]", "value": "0 ± 0 number of fecal pellets"},
      {"measurement": "diminution in fecal output", "setting": "[3]; 0.07 :mol/kg SC", "value": 50, "unit": "%"},
      {"measurement": "inhibition in vivo at 0.0726 µmol/kg", "setting": "[3]; Rattus norvegicus, 0.0726 μmol/kg SC, vs stressed controls, 6 h, read-out: % Reduction", "value": 52, "unit": "%"},
      {"measurement": "inhibition in vivo at 0.145 µmol/kg", "setting": "[3]; Rattus norvegicus, 0.145 μmol/kg SC, vs stressed controls, 6 h, read-out: % Reduction", "value": 80, "unit": "%"},
      {"measurement": "inhibition in vivo at 0.29 µmol/kg", "setting": "[3]; Rattus norvegicus, 0.29 μmol/kg SC, vs stressed controls, 6 h, read-out: % Reduction", "value": 95, "unit": "%"},
      {"measurement": "inhibition in vivo at 0.58 µmol/kg", "setting": "[3]; Rattus norvegicus, 0.58 μmol/kg SC, vs stressed controls, 6 h, read-out: % Reduction", "value": 100, "unit": "%"},
      {"measurement": "inhibition in vivo at 1.16 µmol/kg", "setting": "[3]; Rattus norvegicus, 1.16 μmol/kg SC, vs stressed controls, 6 h, read-out: % Reduction", "value": 100, "unit": "%"},
      {"measurement": "inhibition in vivo at 2.3 µmol/kg", "setting": "[3]; [10]", "value": 100, "unit": "%"},
      {"measurement": "activity at diminishing stress-induced fecal output (in words)", "setting": "[3]; SC administration to stressed rats", "value": "most effective against stress-induced stooling, regardless of the mode of administration"},
      {"measurement": "dose needed to reduce fecal output of the stressed animals to that of the unstressed controls", "setting": "[3]; SC, rats", "value": 0.0625, "unit": "mg/kg"},
      {"measurement": "lowest dose that reduced stool output by >50% relative to the stressed controls", "setting": "[3]; SC, rats", "value": 0.03125, "unit": "mg/kg"},
      {"measurement": "1 mg/kg neurotoxic dose relative to lowest dose reducing stool output by >50%", "setting": "[3]; rats, 1 mg/kg vs 0.03125 mg/kg", "value": "greater than 30 times"},
      {"measurement": "acute toxicity", "setting": "[6]; IP, female CD-1 mice, single dose, scored 2 h", "value": "about 150 mg/kg"},
      {"measurement": "toxic doses (neurological signs)", "setting": "[6]; IP, single dose, mice", "value": "≥ 125", "unit": "mg/kg"},
      {"measurement": "toxic dose in mice, allometrically scaled, relative to the 0.0625 mg/kg effective dose in rats", "setting": "[6]; mouse toxic dose vs rat dose of 0.0625 mg/kg", "value": "at least 1000 times"},
      {"measurement": "signs of acute toxicity in mice", "setting": "[6]; toxic doses, mice", "value": "uncoordinated movements, intention tremors, and severe motor dysfunction, especially of the hind limbs"}
    ]}
  ]
}
